Test results: patent US20160291027A1, “METHODS FOR […] ABILITY OF A Z[…] COMPOUND TO TREAT CANCER” (Eisai R&D Management Co., Ltd., priority 2007, published 2016)

Legend:
Assay type in all cases: cell-based
[1] = system: cell lines which carried a BRAF V600E mutation; experiment: Cell growth assay (CellTiter-Glo or methylene blue) in solid cancer cell lines; settings: 96 hours, 0.3-10000 nM
Method: In a separate experiment, Compounds 091 and 106 were tested in solid cancer cell lines from different tissue types (shown in FIG. 3B for 21 cell lines for compound 091 and 19 cell lines for compound 106). All cell lines were introduced into 96-well plates and grown in the absence or continuous presence of 0.3-10000 nM of either compound 091 or compound 106 for 96 hours. Cell growth was assessed using a CellTiter-Glo® Luminescent Cell Viability Assay (Promega) or a methylene blue assay. IC50 values were determined as the concentration of a substance which inhibits cell growth by 50% compared to untreated cell populations.

[2] = system: BRAF mutant (V600E) melanoma cell lines; experiment: Cell growth assay in BRAF mutant (V600E) melanoma cell lines; settings: continuous presence of compound
Method: In a separate experiment, Compound 106 was tested in a panel of BRAF mutant (V600E) melanoma cell lines. (This set of cell lines represents 17 additional cell lines relative to FIG. 3C.) The melanoma cell lines were introduced into 96-well plates and grown in the absence or continuous presence of compound 106. IC50 values were determined as the concentration of a substance which inhibits cell growth by 50% compared to untreated cell populations.

[3] = system: RPMI-7951; experiment: CellTiter-Glo cell growth assay; settings: RPMI-7951, BRAF mutated melanoma, elevated pAKT; 10 μmol/L to 0.0003 μmol/L
Method: In order to determine whether Compound 106 resistance is associated with constitutive AKT phosphorylation as a result of activation of the PI3K signaling pathway, a panel of 10 BRAF mutated melanoma cell lines and a BRAF wild-type glioblastoma cancer cell line, SF-295, were tested using different concentrations of Compound 106 ranging from 10 μmol/L to 0.0003 μmol/L.
All assays were performed in a 96 well format. For these cell lines, protein lysates were collected in a separate experiment, which allowed for the evaluation of the constitutive level of AKT phosphorylation and correlation between the level of phosphorylated AKT (pAKT) and Compound 106 sensitivity. Cell growth was assessed using CellTiter-Glo® Luminescent Cell Viability Assay (Promega). Phosphorylated AKT protein was analyzed by Western blotting, with total AKT being used as a loading control.

[4] = system: IL-8 secretion by LOX human melanoma cells; experiment: IL-8 secretion by LOX melanoma cells (ELISA); settings: 24 hours
Method: Compound 106 (5.0 mg) was weighed and dissolved in 100% anhydrous DMSO (dimethyl sulfoxide, Sigma-Aldrich®, St. Louis, Mo.) to produce a 10 mmol/L stock solution of 3.89 mg/mL. Aliquots of the 10 mmol/L stock solution were stored at −80° C. Then, on each day of an experiment, an aliquot of the stock solution was thawed and diluted 1:10 by adding RPMI-1640 culture medium to obtain a 1 mmol/L solution. Four serial 1:10 dilutions were made from 1 mmol/L working solution by adding 10% DMSO in RPMI-1640 culture medium to obtain 4 additional working solutions. Each of these working stock solutions was further diluted with culture media to obtain diluted working solutions ranging from 1 nmol/L to 10,000 nmol/L. Five mL of each of these diluted working solutions was added to each dish.
LOX human melanoma cells were originally obtained from the DCTD Tumor Repository (Frederick, Md.). The cells were grown in monolayer cultures in RPMI-1640 growth media containing 10% fetal bovine serum (FBS) at 37° C. in a 5% CO2 humidified incubator.
LOX human melanoma cells were plated at 1×10^6 cells into 100 mm dishes. After 48 hours, cells were washed three times with phosphate buffered saline (PBS) and were cultured with RPMI-1640 medium containing 0.1% FBS for another 24 hours. After removing the cell culture medium, fresh RPMI-1640 medium containing Compound 106 (1, 10, 100, 1000, or 10,000 nmol/L) was added to each culture dish and incubated for 24 hours (see Table 5). The control received 0.1% DMSO in RPMI-1640 culture medium alone to measure spontaneous secretion of IL-6 and IL-8. Three separate experiments were performed in duplicate to calculate the mean±SEM.
After a 24 hour incubation with Compound 106 or 0.1% DMSO, 5 mL of cell culture supernatant was collected. Any particulate material was removed by centrifugation. All samples were stored in the −80° C. freezer until analysis. Human IL-6 or IL-8 was determined using an ELISA kit (Human IL-8 ELISA Set, Catalog No. 555244, BD Biosciences, San Diego, Calif. and Human IL-6 ELISA Set, Catalog No. 555220, BD Biosciences, San Diego, Calif.) with the assay procedure provided by the kits. Absorbance was read on a VERSAMAX™ (Molecular Devices, now part of MDS Analytical Technologies, Sunnyvale Calif.).
After removing the cell culture supernatant, 1.0 mL of trypsin was added to the cells for 3 minutes, and then 4 mL of media containing 10% FBS was added for cell counting. Cells were counted using a hematocytometer (Bright Line Counting Chamber, Hausser Scientific, Horsham, Pa.) with a depth of 0.1 mm. The total number of cells was calculated as follows:
Total number of cells in 5 mL=C×10^4/mL×5 mL(C: actual cell count in 1 mm^2)
The level of IL-6 or IL-8 was determined as ng/1×10^6 cells. Inhibition of IL-6 or IL-8 secretion by Compound 106 was expressed as percent of control using the formula below:
Percent of control=(value of treatment−mean value of blank)/(value of control−mean value of blank)×100
The software, Graphpad Prism® (ver. 4, San Diego, Calif.) was used for calculation of mean IC50 values.

`CCNc1cc(O)c2c(c1)/C=C/C[C@H](O)[C@H](O)C(=O)/C=C\[C@@H](C)[C@H](C)OC2=O` [Compound 106] was tested, and the “Sensitivity of BRAF V600E cell lines (concentration range)” value [1] was “low-nM or sub-μM concentration range”, the “Sensitivity of cell lines with BRAF mutation and wild-type PTEN status” value [2] was “very sensitive” and the “Sensitivity of cell line” value [3] was “resistant”. For the same molecule, the “IL-8 (ng/million cells) Mean” value ([4]; 1 nmol/L) was 128.8 ng/million cells, the “IL-8 (pg/million cells) Experiment 1” value ([4]; 1 nmol/L) was 112318 pg/million cells and the “IL-8 (pg/million cells) Experiment 2” value ([4]; 1 nmol/L) was 213228 pg/million cells. The “IL-8 (pg/million cells) Experiment 3” value ([4]; 1 nmol/L) was 60753 pg/million cells, the “Protein level of IL-8, Percent (%) of control Experiment 1” value ([4]; 1 nmol/L) was 106.9% and the “Protein level of IL-8, Percent (%) of control Experiment 2” value ([4]; 1 nmol/L) was 123.9%. For the same molecule, the “Protein level of IL-8, Percent (%) of control Experiment 3” value ([4]; 1 nmol/L) was 163.4%, the “IL-8 (ng/million cells) Mean” value ([4]; 10 nmol/L) was 60.2 ng/million cells and the “IL-8 (pg/million cells) Experiment 1” value ([4]; 10 nmol/L) was 47049 pg/million cells. For the same molecule, the “IL-8 (pg/million cells) Experiment 2” value ([4]; 10 nmol/L) was 90632 pg/million cells, the “IL-8 (pg/million cells) Experiment 3” value ([4]; 10 nmol/L) was 42942 pg/million cells and the “Protein level of IL-8, Percent (%) of control Experiment 1” value ([4]; 10 nmol/L) was 44.8%. For the same molecule, the “Protein level of IL-8, Percent (%) of control Experiment 2” value ([4]; 10 nmol/L) was 52.7%, the “Protein level of IL-8, Percent (%) of control Experiment 3” value ([4]; 10 nmol/L) was 115.5% and the “IL-8 (ng/million cells) Mean” value ([4]; 100 nmol/L) was 3.1 ng/million cells. The “IL-8 (pg/million cells) Experiment 1” value ([4]; 100 nmol/L) was 3079 pg/million cells, the “IL-8 (pg/million cells) Experiment 2” value ([4]; 100 nmol/L) was 3249 pg/million cells and the “IL-8 (pg/million cells) Experiment 3” value ([4]; 100 nmol/L) was 3101 pg/million cells. For the same molecule, the “Protein level of IL-8, Percent (%) of control Experiment 1” value ([4]; 100 nmol/L) was 2.9%, the “Protein level of IL-8, Percent (%) of control Experiment 2” value ([4]; 100 nmol/L) was 1.9% and the “Protein level of IL-8, Percent (%) of control Experiment 3” value ([4]; 100 nmol/L) was 8.3%. For the same molecule, the “IL-8 (ng/million cells) Mean” value ([4]; 1,000 nmol/L) was 2.4 ng/million cells, the “IL-8 (pg/million cells) Experiment 1” value ([4]; 1,000 nmol/L) was 3390 pg/million cells and the “IL-8 (pg/million cells) Experiment 2” value ([4]; 1,000 nmol/L) was 2273 pg/million cells. The “IL-8 (pg/million cells) Experiment 3” value ([4]; 1,000 nmol/L) was 1494 pg/million cells, the “Protein level of IL-8, Percent (%) of control Experiment 1” value ([4]; 1,000 nmol/L) was 3.2% and the “Protein level of IL-8, Percent (%) of control Experiment 2” value ([4]; 1,000 nmol/L) was 1.3%. The “Protein level of IL-8, Percent (%) of control Experiment 3” value ([4]; 1,000 nmol/L) was 4.0%, the “IL-8 (ng/million cells) Mean” value ([4]; 10,000 nmol/L) was 2.9 ng/million cells and the “IL-8 (pg/million cells) Experiment 1” value ([4]; 10,000 nmol/L) was 5179 pg/million cells. The “IL-8 (pg/million cells) Experiment 2” value ([4]; 10,000 nmol/L) was 1384 pg/million cells, the “IL-8 (pg/million cells) Experiment 3” value ([4]; 10,000 nmol/L) was 2179 pg/million cells and the “Protein level of IL-8, Percent (%) of control Experiment 1” value ([4]; 10,000 nmol/L) was 4.9%. For the same molecule, the “Protein level of IL-8, Percent (%) of control Experiment 2” value ([4]; 10,000 nmol/L) was 0.8%, the “Protein level of IL-8, Percent (%) of control Experiment 3” value ([4]; 10,000 nmol/L) was 5.9% and the activity at 0.001 µM ([4]; Homo sapiens, LOX, 1 nmol/L, read-out: Protein level of IL-8, Mean % of control) was 131%. It also gave an activity at 0.01 µM ([4]; Homo sapiens, LOX, 10 nmol/L, read-out: Protein level of IL-8, Mean % of control) of 71%, an activity at 0.1 µM ([4]; Homo sapiens, LOX, 100 nmol/L, read-out: Protein level of IL-8, Mean % of control) of 4.4% and an activity at 1 µM ([4]; Homo sapiens, LOX, 1,000 nmol/L, read-out: Protein level of IL-8, Mean % of control) of 2.9%. It also gave an activity at 10 µM ([4]; Homo sapiens, LOX, 10,000 nmol/L, read-out: Protein level of IL-8, Mean % of control) of 3.9% and an IC50 ([4]; Homo sapiens, LOX melanoma cell line, read-out: mean calculated IC50, IL-8 protein level) of 10.5 nM.
